Source: the supplement of paper PMC5579334

Columns and labels:
YST-1 [1] = test: drug sensitivity score (DSS, CellTiter-Glo viability, 72 h) (DSS (dimensionless)); higher = more sensitive; extreme values may be limits of the assay
Procedure, shortened: (§1)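 MPNST cell lines and primary human Schwann cells (750–1000 cells per well) went into 384-well plates preprinted with each compound at five concentrations in 10-fold steps. Plates were incubated 72 h at 37 °C, 5% CO2. Viability was read as CellTiter-Glo ATP luminescence, scaled between vehicle and positive-control wells, with duplicates averaged where present. Percent inhibition is at the top concentration; drug sensitivity score and relative IC50 (censored at top concentration) come from four-parameter logistic fits.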

HS-PSS [2] = test: as above
Procedure, shortened: as §1

HS-Sch-2 [3] = test: as above
Procedure, shortened: as §1

YST-1 [4] = test: % inhibition of CellTiter-Glo viability at highest tested concentration (72 h), relative to DMSO and benzethonium chloride controls; higher = more inhibition
Procedure, shortened: as §1

HS-PSS [5] = test: as above
Procedure, shortened: as §1

HS-Sch-2 [6] = test: as above
Procedure, shortened: as §1

HS-PSS [7] = test: drug sensitivity score (DSS, CellTox-Green cytotoxicity, 72 h) (DSS (dimensionless)); higher = more cytotoxic; extreme values may be limits of the assay
Procedure, shortened: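 MPNST cell lines and primary human Schwann cells were incubated 72 h at 37 °C in 384-well plates holding five 10-fold compound dilutions. CellTox-Green was added before seeding at a final 1:1000 dilution and reported fluorescence from DNA released by disrupted cells. Signals were scaled to vehicle and positive-control wells, and cultures failing plate quality control were dropped. Drug sensitivity score and relative IC50 come from four-parameter logistic fits, with IC50 censored at the top concentration.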

Row | SMILES | drug sensitivity score (YST-1 [1]) | drug sensitivity score (HS-PSS [2]) | drug sensitivity score (HS-Sch-2 [3]) | % inhibition (YST-1 [4]) [%] | % inhibition (HS-PSS [5]) [%] | % inhibition (HS-Sch-2 [6]) [%] | drug sensitivity score (HS-PSS [7])
1 | CCn1nnc2c(N3CCOCC3)nc(-c3ccc(NC(=O)Nc4ccc(C(=O)N5CCN(C)CC5)cc4)cc3)nc21 [PKI-402] (max concentration tested 2500 nM) | 17.3 | 15.3 | 12.4 | 90.9 | 75.8 | 75.5 | 0.89
2 | O=c1[nH]c(C2CCCN2)nc2c1oc1ccc(Cl)cc12 (configuration not stated) (max concentration tested 10000 nM) | 6.83 | 2.86 | 2.7 | 63.8 | 33.3 | 19.3 | 0
3 | CO[C@H]1C(=O)[C@]2(C)[C@@H](OC)C[C@H]3OC[C@@]3(OC(C)=O)[C@H]2[C@H](OC(=O)c2ccccc2)[C@]2(O)C[C@H](OC(=O)[C@H](O)[C@@H](NC(=O)OC(C)(C)C)c3ccccc3)C(C)=C1C2(C)C [Cabazitaxel] (max concentration tested 1000 nM) | 30.7 | 1.5 | 33.6 | 74 | 41.5 | 93.5 | 0.1
4 | Cn1cc(-c2cnn3c(N)c(Br)c([C@@H]4CCCNC4)nc23)cn1 [MK-8776] (max concentration tested 2500 nM) | 2.03 | 0 | 7.06 | 29.6 | 7.73 | 72 | 0
5 | COc1ccc(Cn2ccc3ccc(C(=O)NO)cc32)cc1 (max concentration tested 10000 nM) | 5.14 | 0.33 | 2.02 | 56.2 | 18.1 | 46.8 | 0
6 | O=C(Nc1ccc(OC(F)(F)F)cc1)c1sccc1NCc1ccnc2ccccc12 [OSI-930] (max concentration tested 2500 nM) | 0 | 2.5 | 0.3 | 1.07 | 23.2 | 17.9 | 0
7 | CCCCc1nc2cc(/C=C/C(=O)NO)ccc2n1CCN(CC)CC [Pracinostat] (max concentration tested 10000 nM) | 22 | 12.4 | 15.9 | 100 | 94 | 101 | 6.63
8 | CN(C)C(=N)NC(=N)N [Metformin] (max concentration tested 100000 nM) | 0 | 0.59 | 0 | -0.71 | 19.4 | 7.35 | 0
9 | COc1ccc(C[C@H](NC(=O)[C@H](C)NC(=O)CN2CCOCC2)C(=O)N[C@@H](Cc2ccccc2)C(=O)[C@@]2(C)CO2)cc1 [ONX-0914] (max concentration tested 10000 nM) | 18.1 | 17.6 | 21.7 | 101 | 100 | 101 | 17.5
10 | Cc1nn(C)c(COc2ccc(N3CCN(S(=O)(=O)N(C)C)CC3)cc2)c1-c1cccc2c(CCCOc3cccc4ccccc34)c(C(=O)O)n(CCN3CCOCC3)c12 (max concentration tested 50000 nM) | 6.72 | 4.52 | 5.73 | 101 | 90.5 | 101 | 1.47
11 | FC(F)(F)c1ccc(/C=C/c2nc(COc3ccc(CCCCn4ccnn4)cc3)co2)cc1 [Mubritinib] (max concentration tested 1000 nM) | 6.65 | 17.4 | 12.9 | 28.4 | 74.8 | 62.9 | 0
12 | C[C@@H](Nc1cc(F)cc(F)c1)c1cc(C(=O)N(C)C)cc2c(=O)cc(N3CCOCC3)oc12 [AZD-8186] (max concentration tested 1000 nM) | 1.06 | 0 | 0 | 28.9 | -3.47 | -0.99 | 0
13 | CCc1c2c(nc3ccc(O)cc13)-c1cc3c(c(=O)n1C2)COC(=O)[C@]3(O)CC [SN-38] (max concentration tested 10000 nM) | 36.9 | 22.9 | 36.1 | 99.7 | 77.9 | 100 | 20.4
14 | O=C(c1ccc(/C=C/c2n[nH]c3ccccc23)cc1)N1CCNCC1 [KW-2449] (max concentration tested 2500 nM) | 2.08 | 0 | 0 | 30.9 | 10.1 | 0.48 | 0
15 | CCCOc1ccn2c(C(C)=O)cc(-c3ccccc3S(C)(=O)=O)c2c1 [GSK2801] (max concentration tested 10000 nM) | 0 | 0 | 0 | 0.58 | 0.71 | -6.2 | 0
16 | O=C(NC[C@H](O)CN1CCc2ccccc2C1)c1cc(NC2COC2)ncn1 (max concentration tested 10000 nM) | 0.06 | 0.24 | 0.29 | 14.1 | 17.6 | 10.7 | 0
17 | CN1CC[C@@H](NC(=O)Nc2ccc(C#N)cc2)C[C@@H]1c1nc2ccccc2[nH]1 [Glasdegib] (max concentration tested 1000 nM) | 0 | 2.26 | 1.4 | 1.47 | 21.2 | 20.6 | 0
18 | CCS(=O)(=O)N1CCN(c2ccc(Nc3ncc(C(N)=O)c(NC4CC4)n3)cc2)CC1 [Cerdulatinib] (max concentration tested 10000 nM) | 0 | 3.47 | 4.87 | -4.68 | 40.3 | 58.9 | 0

Row | SMILES | drug sensitivity score (YST-1 [1]) | drug sensitivity score (HS-PSS [2]) | drug sensitivity score (HS-Sch-2 [3]) | % inhibition (YST-1 [4]) [%] | % inhibition (HS-PSS [5]) [%] | % inhibition (HS-Sch-2 [6]) [%] | drug sensitivity score (HS-PSS [7])
19 | CCNC(=O)Nc1ccc(-c2nc3c(c(N4CCOC[C@@H]4C)n2)CCN(C2COC2)C3)cc1 [RG-7603] (max concentration tested 2500 nM) | 6.56 | 1.5 | 3.02 | 56.2 | 32.4 | 33.8 | 0
20 | C[C@@H](Oc1cc(-n2cnc3ccc(CN4CCN(C)CC4)cc32)sc1C(N)=O)c1ccccc1C(F)(F)F (max concentration tested 10000 nM) | 27.3 | 14.6 | 34.6 | 86.8 | 101 | 99.8 | 5.06
21 | O=C(Nc1cccc(Cl)c1)Nc1ncc(CCNc2ncnc3ccsc23)s1 [SNS-314] (max concentration tested 1000 nM) | 8.57 | 2.01 | 4.4 | 36.5 | 23.8 | 53.3 | 0
22 | CN(C)c1cc2c(cc1Sc1nc3c(N)nccc3n1CCNCC(C)(C)C)OCO2 [CUDC-305] (max concentration tested 10000 nM) | 12.6 | 13.1 | 19.6 | 81.7 | 84.7 | 101 | 4.43
23 | CCN1CCN(Cc2ccc(-c3cc4c(N[C@H](C)c5ccccc5)ncnc4[nH]3)cc2)CC1 [NVP-AEE788] (max concentration tested 2500 nM) | 1.87 | 1.04 | 0 | 22.3 | 22.7 | 2.96 | 0
24 | Nc1cc(F)ccc1NC(=O)/C=C/c1cnn(C/C=C/c2ccccc2)c1 [RGFP966] (max concentration tested 10000 nM) | 5.15 | 4.21 | 4.52 | 55.7 | 33.2 | 52.7 | 0
25 | C[C@@H]1CN(Cc2ccc(F)cc2)[C@@H](C)CN1C(=O)c1cc2c(C(=O)C(=O)N(C)C)cn(C)c2cc1Cl [Talmapimod] (max concentration tested 10000 nM) | 6.19 | 0.11 | 0 | 37.4 | 13.9 | -10 | 0
26 | CNC(=O)c1ccc2cc([C@@]3(O)CCn4cncc43)ccc2c1 [Orteronel] (max concentration tested 10000 nM) | 0 | 0 | 0 | 7.23 | -7 | -4.34 | 0
27 | O=C(NC1CCNCC1)c1n[nH]cc1NC(=O)c1c(Cl)cccc1Cl [AT7519] (max concentration tested 10000 nM) | 26 | 15.3 | 17.6 | 98.7 | 73.5 | 99.7 | 1.85
28 | CNc1ncc2cc(-c3cc(NC(=O)NCCC(C)(C)C)c(F)cc3C)c(C)nc2n1 (max concentration tested 10000 nM) | 6.37 | 3.13 | 10.8 | 46.5 | 69.1 | 55.9 | 0.82
29 | CC[C@H](C)C(=O)O[C@H]1C[C@@H](C)C=C2C=C[C@H](C)[C@H](CC[C@@H]3C[C@@H](O)CC(=O)O3)[C@H]21 [Lovastatin] (max concentration tested 10000 nM) | 0 | 0 | 0 | 0.71 | -5.9 | -6.45 | 0
30 | c1cn2cc(-c3ccc4cn[nH]c4c3)nc(Nc3ccc(N4CCOCC4)cc3)c2n1 [Entospletinib] (max concentration tested 5000 nM) | 0.45 | 0 | 0.89 | 12 | -4.13 | -16 | 0.89
31 | O=C(NOC[C@H](O)CO)c1ccc(F)c(F)c1Nc1ccc(I)cc1F (max concentration tested 1000 nM) | 0 | 0.01 | 0.69 | -8.18 | 12.4 | 15 | 0
32 | Cc1cccc(-c2[nH]c(CNc3ccccc3F)nc2-c2ccc3ncnn3c2)n1 [TEW-7197] (max concentration tested 2500 nM) | 0 | 1.89 | 0.08 | -10.6 | 23.2 | 13.1 | 0
33 | O=C(Nc1cccc(Nc2ncc(Br)c(NCCc3cnc[nH]3)n2)c1)N1CCCC1 [BX-912] (max concentration tested 10000 nM) | 8.47 | 3.51 | 4.94 | 67 | 44.8 | 78.4 | 0
34 | Cc1cc(Nc2cc(N3CCN(C)CC3)nc(/C=C/c3ccccc3)n2)n[nH]1 [ENMD-2076] (max concentration tested 10000 nM) | 10.8 | 8.13 | 12.1 | 63.9 | 70.5 | 95.5 | 1.84
35 | O=C(/C=C\n1cnc(-c2cc(C(F)(F)F)cc(C(F)(F)F)c2)n1)NNc1ccccn1 [Verdinexor] (max concentration tested 1000 nM) | 8.71 | 5.78 | 9.76 | 88.9 | 60 | 97 | 0.01
36 | O=C(Nc1nc2cccc(-c3ccc(CN4CCS(=O)(=O)CC4)cc3)n2n1)C1CC1 [Filgotinib] (max concentration tested 10000 nM) | 1.97 | 0.09 | 2.01 | 45.2 | 14.3 | 35.7 | 0
